Patent publication US12612412B2, “Antiviral heterocyclic compounds” (Enanta Pharmaceuticals, Inc., priority 2021, dated 2026)
Like-named read-outs stand apart in the source and are kept apart here.

Key:
[1] = system: HMPV clinical isolate TN/1501/A1; assay: HMPV antiviral assay Method-B (clinical isolate TN/1501/A1 in LLC-MK2 cells, ATP-Lite readout); format: cell-based, Human metapneumovirus (HMPV); settings: human metapneumovirus, LLC-MK2, 144 h, hMPV WT1501 (clinical isolate TN/1501/A1), 6 days
Outline: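 LLC-MK2 cells infected in suspension with TN/1501/A1 at MOI 0.014 in serum-free medium with 2 μg/mL TPCK-trypsin (final), incubated 6 days at 37° C. Compounds tested in duplicate, 10-point 3-fold dilutions from 10 μM. Cell health read by ATP-Lite luminescence, normalised to virus-only and cells-only controls; EC50 by four-parameter logistic fit.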

[2] = system: genotype A, "Long" strain RSV; assay: RSV-A assay (CPE protection in Hep-2 cells, ATPlite readout); format: cell-based, Human respiratory syncytial virus (HRSV); settings: human respiratory syncytial virus, MOI 0.1, CPE protection
Outline: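 Hep-2 cells (8,000/well) infected with RSV Long strain at MOI 0.1 in the presence of 2-fold compound dilutions in duplicate. After 5 days, cell viability measured by ATPlite luminescence, normalized between virus-only and uninfected cell controls; EC50 reported.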

[3] = RSV-A Long strain, read-out: Human RSV-A (“Long”) EC50
[4] = genotype A “Long” strain RSV, read-out: Human RSV-A (“Long”)

SMILES	EC50 [1] [nM]	EC50 [2, 3] [nM]	EC50 [2, 4] [nM]
COc1cc(C(=O)NC[C@](O)(c2cc3c(c(-c4ccc5c(c4)OCO5)n2)OC[C@]3(C)C(N)=O)C(F)(F)F)cc2cn(C3CC3)nc12 [Example 908]	< 500	< 200	–
COc1cc(C(=O)NC[C@](O)(c2cc3c(c(-c4cccs4)n2)OC[C@]3(C)C(N)=O)C(F)(F)F)cc2cn(C3CC3)nc12 [Example 968]	> 500	> 200	–
Cc1cnc2c(OC(F)F)cc(C(=O)NC[C@](O)(c3cc4c(c(-c5ccc(F)cc5)n3)OC[C@@]4(C(N)=O)C(F)F)C3CC3)cc2c1 [Example 1027]	< 500	< 200	–
COc1cc(C(=O)NC[C@](O)(c2cc3c(c(-c4ccc(C(F)(F)F)c(Cl)c4)n2)OC[C@]3(C)C(N)=O)C(F)(F)F)cc2cc(Cl)c(C)nc12 [Example 581]	> 500	–	< 200
Cc1cnc2c(OC(F)F)cc(C(=O)NC[C@](O)(c3cc4c(c(-c5ccc(F)c(Cl)c5F)n3)OC[C@]4(C)C(N)=O)C3(F)CC3)cc2c1 [Example 753]	< 500	–	< 200
COc1cc(C(=O)NC[C@](O)(c2cc3c(c(-c4ccc(F)cc4)n2)OC[C@@H]3C(N)=O)C(F)(F)F)cc2cn(C3CC3)nc12 [Example 653]	> 500	–	< 200
C[C@]1(C(N)=O)COc2c1cc([C@@](O)(CNC(=O)c1cc(OC3CC3)c3nn(C4(F)CC4)cc3c1)C(F)(F)F)nc2-c1csc2c(F)cccc12 [Example 605]	< 500	–	< 200
COc1cc(C(=O)NC[C@](O)(c2cc3c(c(-c4cc(Cl)ccc4F)n2)OC[C@]3(C)C(N)=O)C2CC2)cc2cc(Br)c(C)nc12 [Example 1189]	< 500	< 200	–
COc1cc(C(=O)NC[C@](O)(c2cc3c(c(-c4ccc(F)cc4Cl)n2)OC[C@]3(C)C(N)=O)C2CC2)cc2cn(C(F)F)nc12 [Example 656]	< 500	–	< 200
COc1cc(C(=O)NC[C@](O)(c2cc3c(c(-c4ccc5c(c4)OC(F)(F)O5)n2)OC[C@]3(C)C(N)=O)C2CC2)cc2cn(C3(F)CC3)nc12 [Example 835]	< 500	< 200	–
C[C@]1(C(N)=O)COc2c1cc([C@@](O)(CNC(=O)c1cc(OC3CC3)c3nn(C4(F)CC4)cc3c1)C(F)(F)F)nc2-c1cc(Cl)c(F)cc1F [Example 615]	< 500	–	< 200
COc1cc(C(=O)NC[C@](O)(c2cc3c(c(-c4cc(Cl)c(F)c(Cl)c4)n2)OC[C@]3(C)C(N)=O)C(F)(F)F)cc2cn(C3(F)CC3)nc12 [Example 671]	> 500	–	< 200
C[C@]1(C(N)=O)COc2c1cc([C@@](O)(CNC(=O)c1cc(F)c3nc(N)sc3c1)C1(F)CC1)nc2-c1ccc(F)cc1 [Example 709]	> 500	–	< 200
COc1cc(C(=O)NC[C@](O)(c2cc3c(c(-c4ccc(F)cc4)n2)OC[C@]3(CF)C(N)=O)C2CC2)cc2cc(Cl)c(C)nc12 [Example 1056]	< 500	< 200	–
C[C@]1(C(N)=O)COc2c1cc([C@@](O)(CNC(=O)c1cc3c(cn1)OC(F)(F)O3)C(F)(F)F)nc2-c1ccc(F)cc1 [Example 1067]	> 500	< 200	–
COc1cc(C(=O)NC[C@](O)(c2cc3c(c(-c4ccc5c(c4)OC(F)(F)O5)n2)OC[C@]3(C)C(N)=O)C(F)(F)F)ccc1OC1CC1 [Example 817]	< 500	–	< 200
COc1cc(C(=O)NC[C@](O)(c2cc3c(c(-c4ccc(F)cc4)n2)OC[C@]3(C)C(N)=O)C2CC2)cc2cc(C(F)F)nnc12 [Example 1128]	> 500	< 200	–
COc1cc(C(=O)NC[C@](O)(c2cc3c(c(-c4cccc(C5CC5)c4)n2)OC[C@]3(C)C(N)=O)C(F)(F)F)cc2cn(C3CC3)nc12 [Example 977]	> 500	< 200	–

SMILES	EC50 [1] [nM]	EC50 [2, 3] [nM]	EC50 [2, 4] [nM]
COc1cc(C(=O)NC[C@](O)(c2cc3c(c(-c4ccc(F)cc4)n2)OC[C@]3(C(N)=O)C(F)F)C(F)(F)F)cc2cc(Cl)c(C)nc12 [Example 1000]	> 500	< 200	–
COc1cc(C(=O)NC[C@](O)(c2cc3c(c(-c4csc5c(F)cccc45)n2)OC[C@]3(C)C(N)=O)C(F)(F)F)cc2cn(C(F)F)nc12 [Example 600]	< 500	–	< 200
COc1cc(C(=O)NC[C@](O)(c2cc3c(c(-c4ccc5c(c4)OC(F)(F)O5)n2)OC[C@]3(C)C(N)=O)C2CC2)ccc1OC1CC1 [Example 830]	< 500	< 200	–
COc1cc(C(=O)NC[C@](O)(c2cc3c(c(-c4ccc(F)cc4)n2)OC[C@]3(C)C(N)=O)C2CCC2)cc2cn(C3CC3)nc12 [Example 708]	< 500	–	< 200
COc1cc(C(=O)NC[C@](O)(c2cc3c(c(-c4cccc(F)c4Cl)n2)OC[C@]3(C)C(N)=O)C2CC2)cc2cn(C3CC3)nc12 [Example 1122]	< 500	< 200	–
COc1cc(C(=O)NC[C@](O)(c2nc(-c3cc(Cl)c(F)cc3F)c3c(c2F)[C@@](C)(C(N)=O)CO3)C2CC2)cc2cn(C(F)F)nc12 [Example 1162]	< 500	< 200	–
COc1cc(C(=O)NC[C@](O)(c2cc3c(c(-c4ccc(Cl)c(C(F)(F)F)c4)n2)OC[C@]3(C)C(N)=O)C(F)(F)F)cc2cn(C3CC3)nc12 [Example 972]	< 500	< 200	–
COc1cc(C(=O)NC[C@](O)(c2cc3c(c(-c4ccccc4Cl)n2)OC[C@]3(C)C(N)=O)C(F)(F)F)cc2cn(C3CC3)nc12 [Example 1248]	< 500	< 200	–
Cc1cnc2c(OC(F)(F)F)cc(C(=O)NC[C@](O)(c3cc4c(c(-c5ccc(F)cc5)n3)OC[C@]4(C)C(N)=O)C(F)(F)F)cc2c1 [Example 501]	> 500	–	< 200
C[C@]1(C(N)=O)COc2c1cc([C@@](O)(CNC(=O)c1cc(F)c3nc(N)sc3c1)C(F)(F)F)nc2-c1ccc2c(c1)OC(F)(F)O2 [Example 698]	> 500	–	< 200
COc1cc(C(=O)NC[C@](O)(c2cc3c(c(-c4c(F)cccc4F)n2)OC[C@]3(C)C(N)=O)C(F)(F)F)cc2cn(C3CC3)nc12 [Example 1233]	> 500	< 200	–
COc1cc(C(=O)NC[C@](O)(c2cc3c(c(-c4ccc(F)c(F)c4F)n2)OC[C@]3(C)C(N)=O)C2CC2)cc2cc(Cl)c(C)nc12 [Example 526]	< 500	–	< 200
Cc1cnc2c(Cl)cc(C(=O)NC[C@](O)(c3cc4c(c(-c5ccc(F)c(C(F)(F)F)c5)n3)OC[C@]4(C)C(N)=O)C3CC3)cc2c1 [Example 1102]	< 500	< 200	–
COc1cc(C(=O)NC[C@](O)(c2cc3c(c(-c4cc(C(F)F)cs4)n2)OC[C@]3(C)C(N)=O)C(F)(F)F)cc2cn(C3CC3)nc12 [Example 947]	> 500	< 200	–
C[C@]1(C(N)=O)COc2c1cc([C@@](O)(CNC(=O)c1cc(OC3CC3)c3nn(C(F)F)cc3c1)C(F)(F)F)nc2-c1ccc2c(c1)OC(F)(F)O2 [Example 569]	< 500	–	< 200
Cc1cnc2c(Cl)cc(C(=O)NC[C@](O)(c3cc4c(c(-c5ccc(F)c(F)c5Cl)n3)OC[C@]4(C)C(N)=O)C3CC3)cc2c1 [Example 1187]	< 500	< 200	–
COc1cc(C(=O)NC[C@](O)(c2cc3c(c(-c4ccc(F)c(Br)c4F)n2)OC[C@]3(C)C(N)=O)C2CC2)cc2cn(C3(F)CC3)nc12 [Example 802]	< 500	–	< 200
